In ChEMBL document CHEMBL4257573, “Synthesis, modification, and cytotoxic evaluation of 2,3-secotriterpenic β-ketoesters” (Bioorg Med Chem Lett, 2018):

Tests used:
[1] = test system: HCT-116; test: Cytotoxicity against human HCT116 cells assessed as reduction in cell viability after 72 hrs by MTT assay; assay type: functional, cell-based; details: HCT-116, 72 h
[2] = test system: MCF7; test: Cytotoxicity against human MCF7 cells assessed as reduction in cell viability after 72 hrs by MTT assay; assay type: functional, cell-based; details: MCF7, 72 h
[3] = test system: RD; test: Cytotoxicity against human RD cells assessed as reduction in cell viability after 72 hrs by MTT assay; assay type: functional, cell-based
[4] = test system: A549; test: Cytotoxicity against human A549 cells assessed as reduction in cell viability after 72 hrs by MTT assay; assay type: functional, cell-based; details: A549, 72 h
[5] = Cytotoxicity against human MS cells assessed as reduction in cell viability after 72 hrs by MTT assay; assay type: functional, cell-based
[6] = test system: HEp-2; test: Cytotoxicity against human Hep2 cells assessed as reduction in cell viability after 72 hrs by MTT assay; assay type: functional, cell-based; details: HEp-2, 72 h
[7] = Selectivity index, ratio of IC50 for HEK293 cells to IC50 for human MS cells; assay type: toxicity; details: HEK293 cells versus MS cells, read-out: Ratio IC50
[8] = test system: HEK293; test: Cytotoxicity against HEK293 cells assessed as reduction in cell viability after 72 hrs by MTT assay; assay type: cell-based; details: Homo sapiens, HEK293, 72 h
[9] = Selectivity index, ratio of IC50 for HEK293 cells to IC50 for human MCF7 cells; assay type: toxicity; details: HEK293 cells versus MCF7 cells, read-out: Ratio IC50
[10] = Selectivity index, ratio of IC50 for HEK293 cells to IC50 for human Hep2 cells; assay type: toxicity; details: HEK293 cells versus Hep2 cells, read-out: Ratio IC50

For `CC1(C)CC[C@]23CC[C@]4(C)[C@H](CC[C@@H]5[C@@](C)(CC#N)[C@H](C(C)(C)C(=O)COC(=O)CCCCCCCCC(=O)O)CC[C@]54C)[C@H]2[C@H]1OC3`, the IC50 [1] was greater than 100 µM, the IC50 [2] was greater than 100 µM and the IC50 [3] was greater than 100 µM. For the same compound, the IC50 [4] was greater than 100 µM, the IC50 [5] was greater than 100 µM and the IC50 [6] was greater than 100 µM.

`CC(=O)OCC(=O)C(C)(C)[C@@H]1CC[C@]2(C)[C@H](CC[C@@H]3[C@H]4[C@H]5OC[C@@]4(CCC5(C)C)CC[C@]32C)[C@@]1(C)CC#N` gave an IC50 [1] greater than 100 µM, an IC50 [2] greater than 100 µM and an IC50 [3] greater than 100 µM. For the same compound, the IC50 [4] was greater than 100 µM, the IC50 [5] was greater than 100 µM and the IC50 [6] was greater than 100 µM.

`CC1(C)CC[C@]23CC[C@]4(C)[C@H](CC[C@@H]5[C@@](C)(CC#N)[C@H](C(C)(C)C(=O)C(Cl)Cl)CC[C@]54C)[C@H]2[C@H]1OC3` gave an IC50 [1] of 13.2 µM, an IC50 [2] of 10.8 µM and an IC50 [3] of 11.3 µM. It also gave an IC50 [4] of 35.2 µM, an IC50 [5] of 24.7 µM and an IC50 [6] greater than 100 µM.

`CC1(C)CC[C@]23CC[C@]4(C)[C@H](CC[C@@H]5[C@@](C)(CC#N)[C@H](C(C)(C)C(=O)COC=O)CC[C@]54C)[C@H]2[C@H]1OC3` gave an IC50 [1] greater than 100 µM, an IC50 [2] greater than 100 µM and an IC50 [3] greater than 100 µM. It also gave an IC50 [4] greater than 100 µM, an IC50 [5] greater than 100 µM and an IC50 [6] greater than 100 µM.

For `C=C(C=O)[C@@H]1CC[C@]2(C(=O)OC)CC[C@]3(C)[C@H](CC[C@@H]4[C@@](C)(CC#N)[C@H](C(C)(C)C(=O)COC=O)CC[C@]43C)[C@@H]12`, the IC50 [1] was 79.8 µM, the IC50 [2] was 30 µM and the IC50 [3] was 49.4 µM. It also gave an IC50 [4] greater than 100 µM, an IC50 [5] of 49.1 µM and an IC50 [6] of 78.9 µM.

With `C=C(C=O)[C@@H]1CC[C@]2(C(=O)OC)CC[C@]3(C)[C@H](CC[C@@H]4[C@@](C)(CC#N)[C@H](C(C)(C)C(=O)COC(=O)c5cccnc5)CC[C@]43C)[C@@H]12` the selectivity ratio [7] was 1.47 to 8.45, the IC50 [1] was 7.03 µM and the IC50 [2] was 35 µM. The IC50 [8] was 59.4 µM, the IC50 [3] was 8.98 µM and the IC50 [4] was 40.3 µM. For the same compound, the selectivity ratio [9] was 1.47 to 8.45, the IC50 [5] was 8.27 µM and the selectivity ratio [10] was 1.47 to 8.45. For the same compound, the IC50 [6] was 29.5 µM.

Work on `CC1(C)CC[C@]23CC[C@]4(C)[C@H](CC[C@@H]5[C@@](C)(CC#N)[C@H](C(C)(C)C(=O)COC(=O)CCC(=O)O)CC[C@]54C)[C@H]2[C@H]1OC3` yielded an IC50 [1] greater than 100 µM, an IC50 [2] greater than 100 µM and an IC50 [3] greater than 100 µM. The IC50 [4] was greater than 100 µM, the IC50 [5] was greater than 100 µM and the IC50 [6] was greater than 100 µM.

In the case of `CC1(C)CC[C@]23CC[C@]4(C)[C@H](CC[C@@H]5[C@@](C)(CC#N)[C@H](C(C)(C)C(=O)COC(=O)CC(=O)CC(=O)O)CC[C@]54C)[C@H]2[C@H]1OC3`, the IC50 [1] is reported as greater than 100 µM, the IC50 [2] is reported as greater than 100 µM and the IC50 [3] is reported as 50.1 µM. The IC50 [4] was 69.5 µM, the IC50 [5] was 87.5 µM and the IC50 [6] was greater than 100 µM.

With `CC1(C)CC[C@]23CC[C@]4(C)[C@H](CC[C@@H]5[C@@](C)(CC#N)[C@H](C(C)(C)C(=O)[C@@H](Cl)Br)CC[C@]54C)[C@H]2[C@H]1OC3` the IC50 [1] was 13.2 µM, the IC50 [2] was 10.8 µM and the IC50 [3] was 11.3 µM. For the same compound, the IC50 [4] was 35.2 µM, the IC50 [5] was 24.7 µM and the IC50 [6] was greater than 100 µM.

In the case of `C=C(C=O)[C@@H]1CC[C@]2(C(=O)OC)CC[C@]3(C)[C@H](CC[C@@H]4[C@@](C)(CC#N)[C@H](C(C)(C)C(=O)COC(=O)c5ccccc5OC(C)=O)CC[C@]43C)[C@@H]12`, the selectivity ratio [7] is reported as 1.08 to 22.5, the IC50 [1] is reported as 4.91 µM and the IC50 [2] is reported as greater than 100 µM. The IC50 [8] was 108 µM, the IC50 [3] was 4.81 µM and the IC50 [4] was 22.8 µM. The selectivity ratio [9] was 1.08 to 22.5, the IC50 [5] was 12.8 µM and the selectivity ratio [10] was 1.08 to 22.5. For the same compound, the IC50 [6] was 36.2 µM.

`CC1(C)CC[C@]23CC[C@]4(C)[C@H](CC[C@@H]5[C@@](C)(CC#N)[C@H](C(C)(C)C(=O)COC(=O)c6cccnc6)CC[C@]54C)[C@H]2[C@H]1OC3` showed an IC50 [1] greater than 100 µM, an IC50 [2] greater than 100 µM and an IC50 [3] greater than 100 µM. For the same compound, the IC50 [4] was greater than 100 µM, the IC50 [5] was greater than 100 µM and the IC50 [6] was greater than 100 µM.

Work on `CC1(C)CC[C@]23CC[C@]4(C)[C@H](CC[C@@H]5[C@@](C)(CC#N)[C@H](C(C)(C)C(=O)COC(=O)/C=C/c6ccccc6)CC[C@]54C)[C@H]2[C@H]1OC3` yielded an IC50 [1] of 28.5 µM, an IC50 [2] greater than 100 µM and an IC50 [3] of 44.3 µM. It also gave an IC50 [4] greater than 100 µM, an IC50 [5] greater than 100 µM and an IC50 [6] greater than 100 µM.

`CC1(C)CC[C@]23CC[C@]4(C)[C@H](CC[C@@H]5[C@@](C)(CC#N)[C@H](C(C)(C)C(=O)CO)CC[C@]54C)[C@H]2[C@H]1OC3` gave an IC50 [1] greater than 100 µM, an IC50 [2] greater than 100 µM and an IC50 [3] greater than 100 µM. It also gave an IC50 [4] greater than 100 µM, an IC50 [5] greater than 100 µM and an IC50 [6] greater than 100 µM.

`C=C(CO)[C@@H]1CC[C@]2(C(=O)OC)CC[C@]3(C)[C@H](CC[C@@H]4[C@@](C)(CC#N)[C@H](C(C)(C)C(=O)COC(C)=O)CC[C@]43C)[C@@H]12` showed an IC50 [1] of 43.7 µM, an IC50 [2] of 10.3 µM and an IC50 [3] of 33.4 µM. It also gave an IC50 [4] of 50.7 µM, an IC50 [5] of 24 µM and an IC50 [6] of 81.2 µM.

With `C=C(C=O)[C@@H]1CC[C@]2(C(=O)OC)CC[C@]3(C)[C@H](CC[C@@H]4[C@]5(C)[C@@H](CC[C@]43C)C(C)(C)[C@@](O)(CO)[C@H]5C#N)[C@@H]12` the selectivity ratio [7] was 4.08 to 20.2, the IC50 [1] was 9.32 µM and the IC50 [2] was 8.39 µM. It also gave an IC50 [8] of 118 µM, an IC50 [3] of 5.83 µM and an IC50 [4] of 28.8 µM. For the same compound, the selectivity ratio [9] was 4.08 to 20.2, the IC50 [5] was 12.3 µM and the selectivity ratio [10] was 4.08 to 20.2. The IC50 [6] was 23.7 µM.

`CC1(C)CC[C@]23CC[C@]4(C)[C@H](CC[C@@H]5[C@@](C)(CC#N)[C@H](C(C)(C)C(O)CO)CC[C@]54C)[C@H]2[C@H]1OC3` (some centres not stated) showed an IC50 [1] of 81.9 µM, an IC50 [2] of 59.8 µM and an IC50 [3] greater than 100 µM. It also gave an IC50 [4] greater than 100 µM, an IC50 [5] of 38 µM and an IC50 [6] greater than 100 µM.

With `CC(C)(CC(=O)OCC(=O)C(C)(C)[C@@H]1CC[C@]2(C)[C@H](CC[C@@H]3[C@H]4[C@H]5OC[C@@]4(CCC5(C)C)CC[C@]32C)[C@@]1(C)CC#N)C(=O)O` the IC50 [1] was greater than 100 µM, the IC50 [2] was greater than 100 µM and the IC50 [3] was greater than 100 µM. For the same compound, the IC50 [4] was greater than 100 µM, the IC50 [5] was greater than 100 µM and the IC50 [6] was greater than 100 µM.

Work on `CC(=O)Oc1ccccc1C(=O)OCC(=O)C(C)(C)[C@@H]1CC[C@]2(C)[C@H](CC[C@@H]3[C@H]4[C@H]5OC[C@@]4(CCC5(C)C)CC[C@]32C)[C@@]1(C)CC#N` yielded an IC50 [1] greater than 100 µM, an IC50 [2] greater than 100 µM and an IC50 [3] greater than 100 µM. The IC50 [4] was greater than 100 µM, the IC50 [5] was greater than 100 µM and the IC50 [6] was greater than 100 µM.

For `CC1(C)CC[C@]23CC[C@]4(C)[C@H](CC[C@@H]5[C@]6(C)[C@@H](CC[C@]54C)C(C)(C)[C@@](O)(CO)[C@H]6C#N)[C@H]2[C@H]1OC3`, the IC50 [1] was greater than 100 µM, the IC50 [2] was greater than 100 µM and the IC50 [3] was greater than 100 µM. The IC50 [4] was greater than 100 µM, the IC50 [5] was greater than 100 µM and the IC50 [6] was greater than 100 µM.

`C=C(CO)[C@@H]1CC[C@]2(C(=O)OC)CC[C@]3(C)[C@H](CC[C@@H]4[C@@](C)(CC#N)[C@H](C(C)(C)C(O)CO)CC[C@]43C)[C@@H]12` (some centres not stated) gave an IC50 [1] greater than 100 µM, an IC50 [2] greater than 100 µM and an IC50 [3] of 72.4 µM. It also gave an IC50 [4] greater than 100 µM, an IC50 [5] greater than 100 µM and an IC50 [6] greater than 100 µM.
